Measurements reported in Sander's compilation of Henry's law constants (doi:10.1246/bcsj.55.1054).

Test: Henry solubility constant Hcp at 298.15 K (mol/(m3 Pa))
Settings: reference: Sanemasa et al. (1982)

Henry solubility constant Hcp	SMILES
0.0013	CCc1ccccc1 [ethylbenzene]
0.0016	Cc1ccc(C)c(C)c1 [1,2,4-trimethylbenzene]
0.00089	CC(C)c1ccccc1 [(2-propyl)-benzene]
0.0024	Cc1cccc(C)c1C [1,2,3-trimethylbenzene]
0.0017	c1ccccc1 [benzene]
0.00095	CCCc1ccccc1 [propylbenzene]

SMILES	Henry solubility constant Hcp
Cc1ccccc1 [methylbenzene]	0.0015
Cc1cc(C)cc(C)c1 [1,3,5-trimethylbenzene]	0.0011
Cc1cccc(C)c1 [1,3-dimethylbenzene]	0.0014
Cc1ccccc1C [1,2-dimethylbenzene]	0.0019
Cc1ccc(C)cc1 [1,4-dimethylbenzene]	0.0013
